IC50, inhibition and Ki data for 3 compounds are collected here from ChEMBL document CHEMBL1133967, “New leads for selective inhibitors of alpha-L-fucosidases. Synthesis and glycosidase inhibitory activities of [(2R,3S,4R)-3,4-dihydroxypyrrolidin-2-yl]furan derivatives” (Bioorg Med Chem Lett, 2001).

The source made the active and inactive calls. No cut-off for these calls is given here.

In test [1] the target is Beta-galactosidase (Bos taurus, UniProt Q58D55). Briefly: Inhibitory concentration against Beta-D-galactosidase of bovine liver.
The subject of test [2] is Prunus dulcis. In words: Percent inhibition against Alpha-mannosidase of Almonds at 1 mM.
In test [3] the target is Beta-galactosidase (Escherichia coli) (UniProt Q8VNN2). Briefly: Inhibitory activity against beta-D-Galactosidase of Escherichia coli at 1 mM; No inhibition.
Test [4] addresses Glucoamylase (Aspergillus niger) (UniProt P69328). In words: Percent inhibition against Amyloglucosidase of Aspergillus niger at 1 mM.
For test [5], the target named is T1, Beta-galactosidase (Aspergillus niger) (UniProt P29853).
T1 sequence (whole entry): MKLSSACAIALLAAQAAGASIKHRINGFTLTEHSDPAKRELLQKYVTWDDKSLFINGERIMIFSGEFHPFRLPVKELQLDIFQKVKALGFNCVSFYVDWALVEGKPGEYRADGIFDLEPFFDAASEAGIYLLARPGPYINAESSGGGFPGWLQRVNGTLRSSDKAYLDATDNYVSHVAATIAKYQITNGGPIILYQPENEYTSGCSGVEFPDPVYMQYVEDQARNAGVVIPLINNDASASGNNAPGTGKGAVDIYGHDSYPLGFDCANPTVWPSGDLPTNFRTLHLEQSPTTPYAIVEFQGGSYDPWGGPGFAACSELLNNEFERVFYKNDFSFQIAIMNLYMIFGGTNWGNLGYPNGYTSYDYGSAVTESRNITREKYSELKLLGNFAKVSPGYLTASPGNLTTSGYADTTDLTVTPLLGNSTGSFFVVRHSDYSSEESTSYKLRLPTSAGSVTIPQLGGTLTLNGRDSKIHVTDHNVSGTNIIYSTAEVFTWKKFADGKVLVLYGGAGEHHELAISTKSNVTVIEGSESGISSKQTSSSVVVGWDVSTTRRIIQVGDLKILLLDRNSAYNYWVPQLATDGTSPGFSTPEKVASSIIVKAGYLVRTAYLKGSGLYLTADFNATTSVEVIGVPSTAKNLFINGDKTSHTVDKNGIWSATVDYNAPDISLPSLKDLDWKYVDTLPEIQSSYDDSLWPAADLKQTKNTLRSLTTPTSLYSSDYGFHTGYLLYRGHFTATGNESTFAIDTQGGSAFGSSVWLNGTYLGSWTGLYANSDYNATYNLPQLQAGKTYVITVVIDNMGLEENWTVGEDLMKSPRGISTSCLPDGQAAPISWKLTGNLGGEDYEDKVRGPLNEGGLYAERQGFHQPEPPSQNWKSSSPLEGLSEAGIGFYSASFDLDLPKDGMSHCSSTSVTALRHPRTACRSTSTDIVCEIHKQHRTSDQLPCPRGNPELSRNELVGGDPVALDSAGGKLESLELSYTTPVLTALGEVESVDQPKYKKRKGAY
In words: Inhibitory activity against Beta-D-galactosidase of Aspergillus niger at 1 mM; No inhibition.

Test [6] can be described thus: Inhibitory activity against Alpha-mannosidase of Jack bean expressed as Ki. The arrangement: species or system Canavalia ensiformis.
Test [7] is described as follows: Inhibitory concentration against Alpha-mannosidase of Jack bean. The arrangement: species or system Canavalia ensiformis.
Test [8] concerns the target T2, Beta-galactosidase (Bos taurus) (UniProt Q58D55).
T2 sequence (whole entry): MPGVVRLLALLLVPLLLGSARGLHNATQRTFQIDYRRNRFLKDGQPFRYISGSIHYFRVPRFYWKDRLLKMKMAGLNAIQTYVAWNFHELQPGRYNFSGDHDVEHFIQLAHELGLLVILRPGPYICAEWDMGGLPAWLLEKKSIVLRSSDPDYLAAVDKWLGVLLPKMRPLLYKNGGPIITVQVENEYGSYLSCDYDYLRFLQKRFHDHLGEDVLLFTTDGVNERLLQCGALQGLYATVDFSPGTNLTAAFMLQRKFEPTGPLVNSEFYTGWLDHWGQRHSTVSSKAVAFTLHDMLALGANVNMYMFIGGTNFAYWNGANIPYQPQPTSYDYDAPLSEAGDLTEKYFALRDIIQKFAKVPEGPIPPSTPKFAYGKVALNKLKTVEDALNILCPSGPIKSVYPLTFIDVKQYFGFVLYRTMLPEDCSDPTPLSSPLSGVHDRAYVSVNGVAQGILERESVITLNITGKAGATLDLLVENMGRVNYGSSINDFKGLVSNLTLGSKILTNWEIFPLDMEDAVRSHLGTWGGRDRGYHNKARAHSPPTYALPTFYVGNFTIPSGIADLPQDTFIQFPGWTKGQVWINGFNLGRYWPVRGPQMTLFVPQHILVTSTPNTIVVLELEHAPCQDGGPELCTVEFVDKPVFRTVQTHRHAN
Briefly: Percent inhibition against Beta-D-galactosidase of bovine liver at 1 mM.

The subject of test [9] is Canavalia ensiformis. In words: Percent inhibition against Alpha-mannosidase of Jack bean at 1 mM.
The species entered for test [10] is Gallus gallus. Briefly: Inhibitory activity against alpha-N-acetylgalactosaminidase of chicken liver at 1 mM; No inhibition.
Test [11] relates to Escherichia coli. Briefly: Inhibitory activity against Alpha-galactosidase of Escherichia coli at 1 mM; No inhibition.
Test [12] is filed under the species Bos taurus. Briefly: Percent inhibition against alpha-L-Fucosidase of bovine epididymis at 1 mM.
Test [13] concerns isomaltase (Saccharomyces cerevisiae). Briefly: Inhibitory activity against isomaltase of baker yeast at 1 mM; No inhibition.
In test [14] the test system is Canavalia ensiformis. In words: Inhibitory activity against Beta-D-galactosidase of Jack bean at 1 mM; No inhibition.
The test system of test [15] is Coffea arabica. Briefly: Inhibitory activity against Alpha-galactosidase of coffee bean at 1 mM; No inhibition.
Test [16] deals with Rhizopus. Briefly: Inhibitory activity against Amyloglucosidase of Rhizopus mold at 1 mM; No inhibition.
The test system of test [17] is Prunus dulcis. In words: Inhibitory activity against Alpha-mannosidase of Almonds at 1 mM; No inhibition.
In test [18] the target is T3, Tissue alpha-L-fucosidase (Homo sapiens, UniProt P04066).
T3 sequence (P04066 whole entry): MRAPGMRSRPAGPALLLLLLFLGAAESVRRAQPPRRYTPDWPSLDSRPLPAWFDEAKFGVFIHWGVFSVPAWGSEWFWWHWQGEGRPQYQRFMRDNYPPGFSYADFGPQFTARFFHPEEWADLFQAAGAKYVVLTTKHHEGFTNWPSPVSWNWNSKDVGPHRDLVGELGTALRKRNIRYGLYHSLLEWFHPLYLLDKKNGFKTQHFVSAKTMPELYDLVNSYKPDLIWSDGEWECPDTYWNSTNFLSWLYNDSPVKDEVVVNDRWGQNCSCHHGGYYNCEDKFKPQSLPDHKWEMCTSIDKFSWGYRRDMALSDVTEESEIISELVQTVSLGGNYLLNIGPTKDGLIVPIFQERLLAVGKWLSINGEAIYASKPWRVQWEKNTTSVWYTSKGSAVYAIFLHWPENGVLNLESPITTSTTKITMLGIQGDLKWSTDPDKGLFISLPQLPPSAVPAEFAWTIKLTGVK
Briefly: Inhibitory concentration against alpha-L-Fucosidase of human placenta.

Test [19] has as its system maltase (Oryza sativa). In words: Inhibitory activity against maltase of rice at 1 mM; No inhibition.
Test [20] concerns Beta-N-acetylglucosaminidase (Bos taurus). In words: Inhibitory activity against Beta-N-acetylglucosaminidase of bovine epididymis B at 1 mM; No inhibition.
In test [21] the test system is Aspergillus oryzae. In words: Inhibitory activity against Beta-D-galactosidase of Aspergillus oryzae at 1 mM; No inhibition.
In test [22] the test system is Caldicellulosiruptor saccharolyticus. In words: Inhibitory activity against Beta-glucosidase of Caldocellum saccharolyticum at 1 mM; No inhibition.
The subject of test [23] is Canavalia ensiformis. In words: Inhibitory activity against Alpha-mannosidase of Jack bean at 1 mM; No inhibition.
The subject of test [24] is Aspergillus niger. Briefly: Inhibitory activity against Alpha-galactosidase of Aspergillus niger at 1 mM; No inhibition.
Test [25] has as its system maltase (Saccharomyces cerevisiae). Briefly: Inhibitory activity against maltase of yeast at 1 mM; No inhibition.
The target of test [26] is Beta-galactosidase (Escherichia coli) (UniProt Q8VNN2). Briefly: Inhibitory activity against Beta-D-galactosidase of Escherichia coli at 1 mM; No inhibition.
The test system of test [27] is Prunus dulcis. In words: Inhibitory activity against Beta-glucosidase of almonds at 1 mM; No inhibition.
The target in test [28] is T4, Tissue alpha-L-fucosidase (Homo sapiens) (UniProt P04066).
T4 sequence (whole entry): T3 sequence (P04066 whole entry)
In words: Percent inhibition against alpha-L-Fucosidase of human placenta at 1 mM.

Test [29] relates to Beta-N-acetylglucosaminidase (Bos taurus). In words: Inhibitory activity against Beta-N-acetylglucosaminidase of bovine epididymis A at 1 mM; No inhibition.
Test [30] concerns the target Glucoamylase (Aspergillus niger) (UniProt P69328). Briefly: Inhibitory activity against Amyloglucosidase of Aspergillus niger at 1 mM; No inhibition.
Test [31] concerns Beta-N-acetylglucosaminidase (Canavalia ensiformis). In words: Inhibitory activity against Beta-N-acetylglucosaminidase of Jack bean at 1 mM; No inhibition.
Test [32] deals with Helix pomatia. Briefly: Inhibitory activity against Beta-mannosidase of Helix pomatia at 1 mM; No inhibition.
Test [33] relates to Rhizopus. In words: Percent inhibition against Amyloglucosidase of Rhizopus mold at 1 mM.
Test [34] deals with Coffea arabica. Briefly: Percent inhibition against Alpha-galactosidase of coffee bean at 1 mM.
Test [35] concerns the target T3, Tissue alpha-L-fucosidase. In words: Inhibitory activity against alpha-L-Fucosidase of human placenta expressed as Ki.

Chain of Beta-galactosidase (Escherichia coli) (Q8VNN2 whole entry, looked up): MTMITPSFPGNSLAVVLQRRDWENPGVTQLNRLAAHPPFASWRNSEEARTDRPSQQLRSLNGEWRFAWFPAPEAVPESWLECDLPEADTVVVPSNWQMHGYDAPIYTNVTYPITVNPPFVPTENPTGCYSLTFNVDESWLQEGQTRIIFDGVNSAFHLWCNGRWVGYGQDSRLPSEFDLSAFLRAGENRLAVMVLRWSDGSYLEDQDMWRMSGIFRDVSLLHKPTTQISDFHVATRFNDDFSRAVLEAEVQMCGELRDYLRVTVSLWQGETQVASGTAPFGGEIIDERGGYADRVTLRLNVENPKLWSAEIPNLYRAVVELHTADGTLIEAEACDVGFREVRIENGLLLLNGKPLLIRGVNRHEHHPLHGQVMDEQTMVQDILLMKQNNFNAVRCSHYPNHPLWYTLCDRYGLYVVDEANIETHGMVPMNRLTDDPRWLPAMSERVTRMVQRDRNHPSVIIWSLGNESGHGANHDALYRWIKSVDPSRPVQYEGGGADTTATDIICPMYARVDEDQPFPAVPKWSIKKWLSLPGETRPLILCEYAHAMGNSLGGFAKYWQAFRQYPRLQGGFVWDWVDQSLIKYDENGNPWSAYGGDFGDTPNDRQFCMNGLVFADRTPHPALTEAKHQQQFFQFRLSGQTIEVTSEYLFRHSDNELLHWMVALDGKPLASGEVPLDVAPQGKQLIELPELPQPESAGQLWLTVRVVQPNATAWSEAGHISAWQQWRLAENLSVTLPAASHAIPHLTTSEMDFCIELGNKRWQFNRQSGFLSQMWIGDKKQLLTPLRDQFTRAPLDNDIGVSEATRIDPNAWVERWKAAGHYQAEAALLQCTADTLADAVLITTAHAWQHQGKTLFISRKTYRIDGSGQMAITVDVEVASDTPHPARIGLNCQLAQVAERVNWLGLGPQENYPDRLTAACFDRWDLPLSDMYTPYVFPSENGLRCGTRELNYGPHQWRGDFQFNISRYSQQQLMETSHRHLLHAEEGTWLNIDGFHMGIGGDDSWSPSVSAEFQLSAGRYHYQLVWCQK
Chain of Glucoamylase (Aspergillus niger) (P69328 whole entry): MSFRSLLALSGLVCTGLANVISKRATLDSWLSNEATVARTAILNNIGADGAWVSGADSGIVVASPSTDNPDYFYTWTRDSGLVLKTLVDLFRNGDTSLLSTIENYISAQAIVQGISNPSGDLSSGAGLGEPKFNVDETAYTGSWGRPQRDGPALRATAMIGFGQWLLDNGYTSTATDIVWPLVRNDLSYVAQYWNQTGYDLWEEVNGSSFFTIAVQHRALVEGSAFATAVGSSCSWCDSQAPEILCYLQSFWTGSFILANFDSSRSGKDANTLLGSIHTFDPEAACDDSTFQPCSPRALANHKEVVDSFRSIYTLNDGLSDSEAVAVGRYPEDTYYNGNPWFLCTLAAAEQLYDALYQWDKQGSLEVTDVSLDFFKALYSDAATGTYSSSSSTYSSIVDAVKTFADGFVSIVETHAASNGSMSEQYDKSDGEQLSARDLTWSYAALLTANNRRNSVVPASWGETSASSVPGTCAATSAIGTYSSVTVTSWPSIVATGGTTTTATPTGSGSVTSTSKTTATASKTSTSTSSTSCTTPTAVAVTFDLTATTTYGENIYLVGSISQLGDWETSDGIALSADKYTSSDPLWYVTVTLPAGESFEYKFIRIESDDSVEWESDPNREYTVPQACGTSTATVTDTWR

Regarding `Cc1oc(C2NCC(O)C2O)cc1C(=O)OC(C)C` (stereo not given), the results for the IC50 in test [1] and in test [7] were 640 µM and 250 µM, respectively. Further, the inhibition in test [2] was determined as 57%; in test [4] it was 27%; in test [8] it was 57%; in test [9], 78%. For the same compound, the inhibition entry in [3] and in [5] was “inactive” in each case. Besides, affinity in test [6] was put at a Ki of 85 µM.
With `Cc1oc(C2NCC(O)C2O)cc1C(=O)Nc1ccccc1` (stereo not given), the inhibition result in test [10], in test [11], in [13], in test [14], in [15] and in [16] was “inactive” each time. Further, the inhibition result in test [5], in [17], in test [19], in [20], in [21] and in [23] was “inactive” in each case. Besides, the inhibition entry in test [24], in test [25], in [26], in test [27], in test [29] and in [30] was “inactive” throughout. Moreover, in test [31], the inhibition result was “inactive”. In addition, the inhibition was under 10% in test [12]; 39% in [8]; “No inhibition” in [22]; 51% in [28]; “No inhibition” in [32]. Moreover, in test [18], the IC50 came out at 1000 µM.
Regarding `COC(=O)c1cc(C2NCC(O)C2O)oc1C` (stereo not given), the inhibition result was “No inhibition” in test [10]; “No inhibition” in [11]; “No inhibition” in test [13]; “No inhibition” in test [14]; 36% in [2]; 23% in test [4]. Also, the inhibition result was “No inhibition” in test [5]; “No inhibition” in test [19]; 33% in test [33]; “No inhibition” in test [21]; 42% in [34]; 54% in [8]. Also, the inhibition entry is “No inhibition” in [22]; “No inhibition” in test [24]; “No inhibition” in test [25]; “No inhibition” in [26]; 23% in [9]; 88% in test [28]. Moreover, in [32], the inhibition entry was “No inhibition”. The values for the IC50 in [1] and in test [18] were 800 µM and 150 µM, respectively. Further, the inhibition result in test [20], in [27], in test [29] and in [31] was “inactive” each time. In addition, the inhibitory constant (Ki) in test [35] came to 13.8 µM.

Usually IC50 stands for the concentration that inhibits the measured activity by half. Broadly, the inhibition is the percentage by which the read-out fell short of the control. Usually Ki stands for the equilibrium dissociation constant of an inhibitor or competing ligand from its target.
